The results in this text go back to patent publication US20250188123A1, “PROTEASE INHIBITORS” (Regents of the University of Minnesota, priority 2022, published 2025).

Molecules are shown by their SMILES.

The assay deals with primary hippocampal neurons overexpressing P301S tau (Tau−/+) and littermate controls (Tau−/−). Nature of the assay: mEPSC recording in primary hippocampal neurons from PS19 transgenic mice expressing P301S tau. In kind it is cell-based, mouse. The note with it: 10 μM; for average amplitude of mEPSC responses in Tau−/+ versus Tau−/− neurons: 3 days in culture media; for cumulative curve of mEPSC amplitudes, Tau−/+ compared with Tau−/−: Mann-Whitney U test. The procedure: For these studies, PS19 transgenic mice expressing P301S mutant tau, one of the most used models of FTDP-17 were used (Feinstein S. Faculty Opinions recommendation of Synapse loss and microglial activation precede tangles in a P301S tauopathy mouse model. Faculty Opinions—Post-Publication Peer Review of the Biomedical Literature. 2007; and Takeuchi H, et al., PLoS One., 2011, 6, e21050). To detect functional deficits, primary hippocampal neurons were cultured from heterozygous transgenic mice overexpressing P301S tau (Feinstein S. Faculty Opinions recommendation of Synapse loss and microglial activation precede tangles in a P301S tauopathy mouse model. Faculty Opinions—Post-Publication Peer Review of the Biomedical Literature. 2007; and Takeuchi H, et al., PLoS One., 2011, 6, e21050) and littermate controls, (denoted Tau−/+ and Tau−/− respectively in FIG. 3), and recorded miniature excitatory synaptic currents (mEPSCs).
Briefly, a 22 mm diameter glass coverslip (0.09 mm thickness) was silicone-sealant-fastened to the bottom of a 35 mm culture dish with a bored hole of 20 mm in diameter and sterilized as described by Smith B R, et al., Acta Neuropathologica Communications, 2019, 7(1), 124. Coverslips were coated with poly-D-lysine. Hippocampi were dissected from neonatal Sprague-Dawley timed-pregnancy rats (Envigo) or appropriate transgenic mice and control littermates (see main text) at post-natal day 0-1. Hippocampi were enzymatically digested in Earle's Balanced Salt Solution (EBSS) supplemented with 1% glucose and cysteine-activated papain. Digestion was blocked with dilute BSA (bovine serum albumin) and chicken ovomucoid, and cells were rinsed in fresh EBSS and plated in plating medium (minimal essential medium with Earle's salts, 10% fetal bovine serum, 5% horse serum, 2 mM glutamine, 10 mM sodium pyruvate, 0.6% glucose, 100 U/ml penicillin and […] streptomycin) at 1.0×10^6 cells/dish. After 18 h cell adherence was established. Cells were then grown in a neurobasal medium (a 1:5 mixture of NbActiv4 to NbActiv1; BrainBits LLC) and incubated at 37° C. in a 5% CO2 biological incubator.
Miniature excitatory postsynaptic currents (mEPSCs) were recorded from cultured dissociated mouse hippocampal neurons at 17-21 DIV with a glass pipette (resistance ˜5 MΩ) at holding potentials of −65 mV on an Axopatch 200B amplifier (output gain=0.5; filtered at 1 kHz) as we previously described (Miller E C, et al., Eur J Neurosci., 2014, 39, 214-224). Input and series resistances were assessed and found to have no significant difference before and after recording time (5-20 mins). Recording sweeps lasted 200 ms and were sampled for every 1 s (pClamp, v10, RRID: SCR_011323). Neurons were bathed in bubble-oxygenated artificial cerebrospinal fluid (ACSF) at 23° C. with 100 μM APV (NMDA receptor antagonist), 1 μM TTX (sodium channel blocker), and 100 μM picrotoxin (GABAa receptor antagonist). Passive oxygen perfusion was established with medical-grade 95% O2-5% CO2. ACSF contained (in mM) 119 NaCl, 2.5 KCl, 5.0 CaCl2), 2.5 MgCl2, 26.2 NaHCO3, 1 NaH2PO4, and 11 D-glucose. The internal solution of the glass pipettes contained (in mM) 100 cesium gluconate, 0.2 EGTA, 0.5 MgCl2, 2 ATP, 0.3 GTP, and 40 HEPES. The pH of the internal solution was normalized to 7.2 with cesium hydroxide and diluted to a trace osmotic deficit in comparison to ACSF (˜300 mOsm). All analysis of recordings was performed using an automated detection software suit (Clampfit, 11.0.3, Molecular Devices, San Jose, CA, USA). Minimum analysis parameters were set at greater than 1 min stable recording time and events with amplitudes greater than 3 pA and smaller than 40 pA were included. A mEPSC event was identified by using a template which included a distinct fast-rising depolarization and slow-decaying repolarization. […]

With `CC(=O)N[C@H](C(=O)NC(CC(=O)O)C(=O)N[C@H](C(=O)N1CCc2cc(C)ccc2C1C(=O)N[C@H](C=O)CC(=O)O)C(C)C)C(C)C` (stereo in doubt) [Compound 30a, (R)-3-((S)-2-acetamido-3-methylbutanamido)-4-(((S)-1-((S)-1-(((S)-1-carboxy-3-oxopropan-2-yl)carbamoyl)-6-methyl-3,4-dihydroisoquinolin-2(1H)-yl)-3-methyl-1-oxobutan-2-yl)amino)-4-oxobutanoic acid, reference compound], the “average amplitude of mEPSC responses in Tau−/+ versus Tau−/− neurons” value is reported as “significantly smaller”. Also, the “cumulative curve of mEPSC amplitudes, Tau−/+ compared with Tau−/−” value (from here on “cumulative curve … compared with Tau−/−”) (3 days) was “shifted to the left”.
On to `CC(=O)N[C@H](C(=O)N[C@@H](CC(=O)O)C(=O)N[C@H](C(=O)N1CCc2cc(C)ccc2[C@H]1C(=O)N[C@H](C=O)CC(=O)O)C(C)C)C(C)C` [Compound 30b, (S)-3-((S)-2-acetamido-3-methylbutanamido)-4-(((S)-1-((S)-1-(((S)-1-carboxy-3-oxopropan-2-yl)carbamoyl)-6-methyl-3,4-dihydroisoquinolin-2(1H)-yl)-3-methyl-1-oxobutan-2-yl)amino)-4-oxobutanoic acid, reference compound], for which the “cumulative curve … compared with Tau−/−” value (3 days) is “shifted to the left but less markedly”.
As for `Cc1ccc2c(c1)CCN(C(=O)[C@@H](NC(=O)[C@H](CCCC(=O)O)NC(=O)C1Cc3ccccc3N1)C(C)C)[C@@H]2C(=O)N[C@H](C#N)CC(=O)O` (stereo partly drawn) [Compound 1, (8)-6-(((S)-1-((8)-1-(((S)-2-carboxy-1-cyanoethyl)carbamoyl)-6-methyl-3,4-dihydroisoquinolin-2(1H)-yl)-3-methyl-1-oxobutan-2-yl)amino)-5-((S)-indoline-2-carboxamido)-6-oxohexanoic acid], the “average amplitude of mEPSC responses in Tau−/+ versus Tau−/− neurons” value is on record as “do not differ significantly”. Besides, under “3 days”, the “average amplitudes of mEPSC responses of Tau−/+ neurons versus those treated with Compound 30a or 30b” value is “significantly larger” and the “cumulative curve … compared with Tau−/−” value is given as “not significantly shifted”.
